Laboratory results from patent US12612403B2, “Nitrogen-containing heterocyclic derivative inhibitor, and preparation method therefor and use thereof” (SHANGHAI HANSOH BIOMEDICAL CO., LTD., priority 2024, dated 2026).

What was measured:
[1] = test system: PCSK9 secreted by HepG2 cells; assay: Effect on the concentration of PCSK9 secreted by HepG2 cells (ELISA); type: cell-based; conditions: Homo sapiens, 48 hours, PCSK9 in culture medium by ELISA
Experimental: 1. Experimental objective: To detect the inhibitory effect of the compounds on PCSK9.
2. Experimental method: • 1) HepG2 cell strain was cultured in the complete culture medium at 37° C., 5% CO2 to 70-90% confluence. • 2) The cells were digested and resuspended in the experimental culture medium, inoculated at 25,000 cells/well/200 μL in a 96-well cell culture plate, and cultured at 37° C. and 5% CO2 for 20-24 hours. • 3) The culture medium was removed from the cell culture plate, and the cell culture plate was washed once by adding 200 ul of the experimental culture medium to each well. • 4) Preparation of positive control compound and compound to be tested: the positive control compound and the compound to be tested were diluted on the compound plate. • 5) The diluted compound was added to the cell culture plate at 250 μL per well and incubated at 37° C. and 5% CO2 for 48 hours. • 6) The cell culture medium was collected at 200 μL per well and cryopreserved at −80° C. for later use. • 7) A sample of the cell culture medium was taken from the −80° C. cryopreservation condition, dissolved, vortexed, and centrifuged for later use. • 8) Preparation of standard curve: corresponding volumes of Dilution buffer were successively added to respective standard tubes, and in the order of the concentrations of 10, 5, 2.5, 1.25, 0.625, 0.313, 0.16, 0 ng/mL, the standard was diluted in series by taking the corresponding volume from the original tube or the last concentration tube. • 9) Preparation of washing liquid: 10x Wash buffer was diluted into 1x with Milli-Q for later use. • 10) According to the standard curve wells and sample wells set according to a plate map, 100 μL/well of the corresponding standards and culture medium samples were added to the wells, with 2 replicate wells. A self-adhesive seal was applied, the plate was placed on a plate shaker at room temperature, gently shaken, uniformly mixed, and incubated for 1 hour. • 11) The plate was placed on the plate washer, the washing liquid was set to 350 μL per well, and the plate was washed 4 times repeatedly. • 12) 100 μL/well of an HRP-conjugated detection antibody was added, a self-adhesive seal was applied, and the plate was placed on the plate shaker, well mixed uniformly, and incubated for 1 hour. • 13) The plate was placed on the plate washer, the washing liquid was set to 350 μL per well, and the plate was washed 4 times repeatedly. • 14) 100 μL/well of Substrate reagent was added, and the plate was placed in the dark, applied with a self-adhesive seal, placed on the plate shaker, well mixed uniformly, and incubated for 10-20 minutes. • 15) 100 μL of Stop solution (1N H2SO4) was added to each well and mixed uniformly. • 16) The optical density (OD) value in each well was measured in sequence at a wavelength of 450 nm by the microplate reader. Detection was carried out within 30 min after the reaction was stopped.
3. Experimental data processing method: After the OD values were read by the microplate reader, the OD value of the 0-concentration standard in the standard group was subtracted from the OD values of the standards, control group, and samples to obtain the actual OD values for these wells. A standard curve was plotted with Graphpad and the concentration of the sample was calculated. If the dilution was performed during the sample detection, the calculated sample concentration was necessarily multiplied by the corresponding dilution ratio in the final calculation, which was the actual concentration of the sample. Inhibition rate=(actual concentration in control−actual concentration in sample)/actual concentration in control*100. According to the inhibition rates corresponding to the different concentrations, IC50 was derived by Graphpad.

PCSK9 protein = molecular target: T1, PCSK9 protein (Homo sapiens, UniProt Q8NBP7); assay: Binding ability to PCSK9 protein (HTRF); conditions: PCSK9-His, Alexa Fluor 647 probe compound
T1 construct: purchased Sino biology (Sino Biological) 29698-H08H
Experimental: 1. Experimental objective: To detect the action of compounds to bind PCSK9 protein by an HTRF method.
3. Experimental data processing method: Four-parameter log(inhibitor) vs. response—Variable slope (four parameters) in XLit was used to perform non-linear fitting of the compound concentration and the corresponding inhibition rate, and IC50 was calculated.

[2] = Pharmacokinetic determination in mice (PO 5 mg/kg, IV 1 mg/kg); type: in vivo, C57BL/6J mice; conditions: male, C57BL/6J, mouse, plasma, C57 mice, PO administration, 5 mpk; for AUC(0-inf): read-out: Area under the curve AUC0-∞; for half-life: read-out: Half-life t1/2 (converted); for MRT: read-out: Mean residence time MRT; for Cmax: read-out: Plasma concentration Cmax; for Tmax: read-out: Time to peak tmax
Experimental: 1. Experimental objective: C57BL/6J mice were used as test animals to study the pharmacokinetic behavior of the compounds of the present disclosure in mice (plasma) after oral and intravenous administration.
2.2 Test animals: C57 mice, male, purchased from Shanghai Bk Lab Animal Co., Ltd., with animal production license number (SCXK (Shanghai) 2013-0006 N0.311620400001794).
2.3 Drug preparation: Preparation of oral drug: 10% Solutol HS15
10 g of Solutol HS15 solid was weighed, dissolved in 90 mL of pure water, uniformly mixed, stirred, and ultrasonically treated to form a clear solution. The compound of the present disclosure was weighed and dissolved in this solution, uniformly shaken, and ultrasonically treated for 15 minutes to obtain a colorless clear solution with a concentration of 0.5 mg/mL. Preparation of intravenous drug: 5% DMSO+10% Solutol HS15+85% PBS, the compound of the present disclosure was weighed, 5% DMSO was first added on the basis of the proportion relative to the total volume of administration, and the mixture was vortexed and ultrasonically treated for 2 min until it was completely dissolved; 10% of Solutol HS15 was then added, and the mixture was vortexed and ultrasonically treated for 2 min until it was completely dissolved; and finally, 85% of PBS was added, and the mixture was vortexed, ultrasonically treated for 5 min, and filtered through a 0.22 um filter membrane to obtain a colorless and transparent clear solution with a concentration of 0.2 mg/mL.
2.4 Administration: 3 male C57 mice were fasted overnight and then respectively administered PO at a dose of 5 mg/kg and a volume of 10 mL/kg. 3 male C57 mice were fasted overnight and then respectively administered IV at a dose of 1 mg/kg and a volume of 5 mL/kg.
2.5 Sample collection: Before and after administration of mice, 0.04 mL of blood was collected from the orbit at 0.083 (iv), 0.25, 0.5, 1, 2, 4, 8, and 24 hours, and placed in EDTA-K2 test tubes, which was centrifuged at 6000 rpm at 4° C. for 6 min to separate plasma which was stored at −80° C.; and the […] were fed 4 h after administration.
2.6 Determination results: The final determination results were obtained by using an LCMS/MS method.
3. Experimental results: The main pharmacokinetic parameters were calculated using WinNonlin 6.1.

T1 sequence (Q8NBP7 153-692): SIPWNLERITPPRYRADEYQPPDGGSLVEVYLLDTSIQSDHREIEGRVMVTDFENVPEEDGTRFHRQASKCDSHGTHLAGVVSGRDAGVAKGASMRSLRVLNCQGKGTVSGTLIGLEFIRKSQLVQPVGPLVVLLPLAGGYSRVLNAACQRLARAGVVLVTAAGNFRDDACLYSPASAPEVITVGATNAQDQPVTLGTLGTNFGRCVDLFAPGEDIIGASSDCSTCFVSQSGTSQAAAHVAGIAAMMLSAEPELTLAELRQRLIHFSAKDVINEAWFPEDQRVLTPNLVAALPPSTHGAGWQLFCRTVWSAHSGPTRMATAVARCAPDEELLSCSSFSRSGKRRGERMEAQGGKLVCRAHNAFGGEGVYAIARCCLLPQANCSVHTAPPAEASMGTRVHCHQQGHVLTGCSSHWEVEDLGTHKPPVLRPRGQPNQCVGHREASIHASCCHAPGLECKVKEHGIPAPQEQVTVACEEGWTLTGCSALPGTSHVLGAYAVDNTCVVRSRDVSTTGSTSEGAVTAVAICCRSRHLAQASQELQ

SMILES	IC50 [1]	IC50 (PCSK9 protein)	AUC(0-inf) [2]	half-life [2]	MRT [2]	Cmax [2]	Tmax [2]
O=C1c2ccc(C3CC3)nc2CN1c1ccc(N[C@H]2CC[C@H](Nc3nc4cc(C(F)(F)F)ccn4n3)C2)nc1 [Example 68, 2-cyclopropyl-6-(6-(((1S,3S)-3-((7-(trifluoromethyl)-[1,2,4]triazolo[1,5-a]pyridin-2-yl)amino)cyclopentyl)amino)pyridin-3-yl)-6,7-dihydro-5H-pyrrolo[3,4-b]pyridin-5-one]	2000 nM	9.8 nM					
N#Cc1nccc2c1CN(c1ccc(N[C@H]3CC[C@H](Nc4nc5cc(C(F)(F)F)ccn5n4)C3)nc1)C2=O [Example 76, 1-carbonyl-2-(6-(((1S,3S)-3-((7-(trifluoromethyl)-[1,2,4]triazolo[1,5-a]pyridin-2-yl)amino)cyclopentyl)amino)pyridin-3-yl)-2,3-dihydro-1H-pyrrolo[3,4-c]pyridine-4-carbonitrile]	4800 nM	13.9 nM					
CC(C)(O)c1ccn(-c2ccc(=O)n(-c3ccc(N[C@H]4CC[C@H](Nc5nc6cc(C(F)(F)F)ccn6n5)C4)nc3)c2)n1 [Example 79, 5-(3-(2-hydroxypropan-2-yl)-1H-pyrazol-1-yl)-6′-(((1S,3S)-3-((7-(trifluoromethyl)-[1,2,4]triazolo[1,5-a]pyridin-2-yl)amino)cyclopentyl)amino)-2H-[1,3′-bipyridine]-2-one]	15100 nM	24.9 nM					
Cc1ccc2c(c1)C(=O)N(c1ccc(N[C@H]3CC[C@H](Nc4nc5cc(C(F)(F)F)ccn5n4)C3)nc1)C2 [Example 82, 6-methyl-2-(6-(((1S,3S)-3-((7-(trifluoromethyl)-[1,2,4]triazolo[1,5-a]pyridin-2-yl)amino)cyclopentyl)amino)pyridin-3-yl)isoindolin-1-one]	800 nM	11.8 nM					
O=C1c2cc(F)ccc2CN1c1ccc(N[C@H]2CC[C@H](Nc3nc4cc(C(F)(F)F)ccn4n3)C2)nc1 [Example 83, 6-fluoro-2-(6-(((1S,3S)-3-((7-(trifluoromethyl)-[1,2,4]triazolo[1,5-a]pyridin-2-yl)amino)cyclopentyl)amino)pyridin-3-yl)isoindolin-1-one]	1100 nM	11.5 nM					
O=C1c2ccccc2CN1c1ccc(N[C@H]2CC[C@H](Nc3nc4cc(C(F)(F)F)ccn4n3)C2)nc1 [Example 84, 2-(6-(((1S,3S)-3-((7-(trifluoromethyl)-[1,2,4]triazolo[1,5-a]pyridin-2-yl)amino)cyclopentyl)amino)pyridin-3-yl)isoindolin-1-one]	4700 nM	6.3 nM					
Cc1ccc2c(n1)C(=O)N(c1ccc(N[C@H]3CC[C@H](Nc4nc5cc(C(F)(F)F)ccn5n4)C3)nc1)C2 [Example 91, 2-methyl-6-(6-(((1S,3S)-3-((7-(trifluoromethyl)-[1,2,4]triazolo[1,5-a]pyridin-2-yl)amino)cyclopentyl)amino)pyridin-3-yl)-5,6-dihydro-7H-pyrrolo[3,4-b]pyridin-7-one]	12900 nM	10.4 nM					
Cc1cnc2c(c1)CN(c1ccc(N[C@H]3CC[C@H](Nc4nc5cc(C(F)(F)F)ccn5n4)C3)nc1)C2=O [Example 94]	20500 nM	9.5 nM					
Cc1cc2c(cn1)CN(c1ccc(N[C@H]3CC[C@H](Nc4nc5cc(OC(F)F)ccn5n4)C3)nc1)C2=O [Example 99]	6600 nM		27900 ng·h/mL	2.7 h	3.4 h	7240 ng/mL	0.25 h
Cc1cn(-c2ccc(N[C@H]3CC[C@H](Nc4nc5cc(C(F)(F)F)ccn5n4)C3)nc2)c(=O)nc1N [Example 109]	19600 nM	16.1 nM					
Cc1cn(-c2ccc(N[C@H]3CC[C@H](Nc4nc5cc(C(F)(F)F)ccn5n4)C3)nc2)c(=O)nc1O [Example 111]	11200 nM	16.2 nM					
O=C1c2cc(Cl)cnc2CN1c1ccc(N[C@H]2CC[C@H](Nc3nc4cc(OC(F)F)ccn4n3)C2)nc1 [Example 130]	1500 nM		57900 ng·h/mL	3.6 h	6.1 h	5090 ng/mL	1 h
